Measured values published in ChEMBL document CHEMBL1667812, “Compounds from Kadsura angustifolia with anti-HIV activity” (Bioorg Med Chem Lett, 2011).
Values after ≈ are worked out from the molar mass of the structure shown.

Legend:
[1] = Therapeutic index, ratio of CC50 for human […] cells to EC50 for HIV1-3B; assay type: cell-based; details: read-out: Ratio CC50/EC50
[2] = Cytotoxicity against human […] cells; assay type: cell-based
[3] = test system: Human immunodeficiency virus 1; assay: Antiviral activity against HIV1-3B infected in human […] cells assessed as inhibition of virus-induced cytopathic effect; assay type: functional, organism-based; details: Human immunodeficiency virus 1, 3B

Row | EC50 [3] | Compound | selectivity ratio [1] | CC50 [2]
1 | 0.0033 µg/mL (≈ 0.0123 µM) | Cc1cn([C@H]2C[C@H](N=[N+]=[N-])[C@@H](CO)O2)c(=O)[nH]c1=O [ZIDOVUDINE] | > 60600 | > 200 µg/mL
2 | 10.5 µg/mL (≈ 22.3 µM) | C=C(C)[C@@H]1CC[C@@H]2[C@]3(CC[C@]4(C)[C@@H]([C@H](C)CC/C=C(/C)C(=O)O)CC[C@@]24C)C[C@]13CCC(=O)O [NIGRANOIC ACID] | 8.48 | 89 µg/mL (≈ 189 µM)
3 | 6.11 µg/mL (≈ 13.1 µM) | C=C(CC/C=C(/C)C(=O)O)C1=CC[C@@]2(C)[C@@H]3[C@H]4C[C@H](C(=C)C)[C@@]5(CCC(=O)O4)C[C@@]35CC[C@]12C [ANGUSTIFIC ACID A] | > 32.8 | > 200 µg/mL
4 | 20.5 µg/mL (≈ 39.4 µM) | COc1c2c(cc3c1-c1c(cc4c(c1OC)OCO4)[C@H](OC(=O)c1ccccc1)[C@@](C)(O)[C@@H](C)C3)OCO2 [SCHISANTHERIN D] | > 9.76 | > 200 µg/mL
5 | 15.8 µg/mL (≈ 36.5 µM) | COc1cc2c(c(OC)c1OC)-c1c(cc(OC)c(OC)c1OC)C[C@](C)(O)[C@@H](C)C2 [SCHIZANDRIN] | > 12.7 | > 200 µg/mL
6 | 13.3 µg/mL (≈ 25.1 µM) | CC1(C)OC(=O)C=C[C@]23C[C@]24C[C@H](O)[C@]2(C)[C@@H]([C@@](C)(O)[C@H]5CC=C(CO)C(=O)O5)CC[C@@]2(C)[C@@H]4C[C@H](O)[C@@H]13 [ANGUSTIFODILACTONE A] | 13.4 | 178 µg/mL (≈ 336 µM)
7 | 22.1 µg/mL (≈ 42.9 µM) | C/C=C(/C)C(=O)O[C@H]1c2cc(OC)c(OC)c(OC)c2-c2c(cc3c(c2OC)OCO3)C[C@H](C)[C@]1(C)O [SCHISANTHERIN B] | > 9.05 | > 200 µg/mL
8 | 19 µg/mL (≈ 38.1 µM) | C/C=C(/C)C(=O)O[C@H]1c2cc3c(c(OC)c2-c2c(cc4c(c2OC)OCO4)C[C@H](C)[C@]1(C)O)OCO3 [INTERIOTHERIN B] | > 10.5 | > 200 µg/mL
9 | 11.2 µg/mL (≈ 21.7 µM) | C=C(C)[C@@H]1C[C@H](O)[C@@H]2[C@]3(CC[C@]4(C)C([C@@](C)(O)CC/C=C(/C)C(=O)O)=C[C@H](O)[C@@]24C)C[C@]13CCC(=O)O [ANGUSTIFIC ACID B] | 13.9 | 156 µg/mL (≈ 302 µM)
10 | 13.6 µg/mL (≈ 26.4 µM) | CC1=CC[C@H]([C@](C)(O)[C@H]2CC[C@@]3(C)[C@@H]4C[C@H](O)[C@H]5C(C)(C)OC(=O)C=C[C@@]56C[C@@]46C[C@H](O)[C@]23C)OC1=O [ANGUSTIFODILACTONE B] | 13.4 | 182 µg/mL (≈ 354 µM)
11 | 15.7 µg/mL (≈ 45.6 µM) | C=C(C)[C@@H]1CC[C@@H]2[C@]3(CC[C@]4(C)C(=O)CC[C@@]24C)C[C@]13CCC(=O)O [MICRANOIC ACID B] | 11.2 | 176 µg/mL (≈ 511 µM)
